The subject of one test is RPE1 cell microtubules. The test can be described thus: Immunofluorescence analysis of RPE1 cell microtubules. The test is classed as cell-based, human. Particulars: RPE1 cells, 50 nM, 30 min. The method, then: (§1) Cells at a density of 20,000 cells per well were grown for 48 h on glass coverslips placed in a 24-well microplate. When cells reached 70% confluence, the medium was replaced with a fresh one supplemented with DMSO (0.005% or 0.01%) or the test compound at 50 nM or 1000 nM. After 30 min of incubation, cells were permeabilized in warm OPT buffer (80 mmol/L Pipes, […], 0.5% Triton X-100 and 10% Glycerol, pH 6.8) and fixed for 6 min in −20 °C methanol (Carlo ERBA SAS, #414855, Val-de-Reuil, France). After washing and saturation with a specific blocking buffer (3% BSA), 10% Goat serum (Gibco Invitrogen, #16210064, Carlsbad, CA, USA) in PBS), cells were incubated for 45 min at room temperature (RT) with anti-alpha-tubulin antibody (clone α3A1 [40] in blocking buffer). Cells were washed twice again and subsequently incubated with Alexa 488 conjugated anti-mouse antibody (1:500 in blocking buffer, #115-545-166, Jackson immune-research laboratory, Cambridgeshire, UK) and DNA was stained with Hoechst 33342 (1:10,000 in blocking buffer) for 30 min at RT. Coverslips were mounted on glass slides with Moviol 4–88.
(§2) Images were captured with a Zeiss AxioimagerM2 microscope equipped with the acquisition software AxioVision (Marly-le-Roi, France).

For a further test, the system named is HeLa cells. The test can be described thus: Cell viability, PrestoBlue assay, HeLa. Format: cell-based. Conditions: Homo sapiens, 48 h, mean ± SEM, read-out: GI50 (concentration causing 50% cell growth inhibition). The method, then: (§3) Cell viability was analyzed using the colorimetric PrestoBlue assay (Gibco Invitrogen, #A13262, Carlsbad, CA, USA). Cells were seeded in 96-well microplates (#655077, Greiner, Courtaboeuf, France) at density of 2500 cells per well and allowed to adhere for 24 h before being treated for 48 h with the drugs at indicated concentrations or corresponding concentrations of DMSO as controls, in a final volume of 90 µL. After 48 h of treatment, 10 µL PrestoBlue was added to each well and cells were incubated for another 45 min. The absorbance of each well was measured using a FLUOstar microplate reader (Excitation: 544 nm; Emission: 580 nm, BMG Lab technology, Champagny/Marne, France).

The subject of the next test is HeLa cells microtubules. The test can be described thus: Immunofluorescence analysis of HeLa cells microtubules. The test is classed as cell-based, Human. Conditions: 50 nM, 30 min. The method, then:
as §1, §2

Test [1] relates to cellular microtubules in HeLa cells. The test can be described thus: Quantitative immunoluminescent assay of the cellular microtubule content. Format: cell-based. Conditions: Homo sapiens, 0.5 h, 30 min incubation, mean ± SEM, read-out: IC50, drug concentration able to reduce the amount of cellular microtubules by half. The method, then: 7500 HeLa cells were seeded in 96-well microplates (#655086, Greiner bio One, Courtaboeuf, France) in 100 µL of complete medium per well and then incubated at 37 °C in 5% CO2 for 24 h. Cells were then treated for 30 min at 37 °C with the compounds at concentrations ranging from 1 to 5000 nM (1 microplate per molecule, 1 concentration per column), with 0.1% DMSO used as […] control (6 wells per microplate). After medium aspiration, treated cells were permeabilized for 10 min using 100 µL per well of warmed (37 °C) OPT buffer (80 mM Pipes, 1 mM EGTA, 1 mM MgCl2, 0.5% Triton X-100, and 10% glycerol, pH 6.8). Cells were fixed overnight at room temperature using 100 µL per well of 4% formaldehyde (Sigma Aldrich, #252549, Saint-Quentin-Fallavier, France) in PBS. Cells were washed 3 times in PBS, 0.1% Tween-20 (100 µL per well), then primary anti-alpha-tubulin antibody (clone α3A1 [40], 1:5000 in PBS 2% Bovine Serum Albumin (BSA)) was added for 45 min. Cells were washed twice again and secondary anti-mouse antibody coupled to HRP (1:2000 in PBS 2% BSA, #715-035-150, Jackson Immuno-Research Laboratories, Cambridgeshire, UK) was added for 45 min. Then, cells were washed again with PBS and 100 µL of ECL substrate (#170-5061, Bio-Rad Laboratories inc., USA) were injected in each well using the FLUOstar OPTIMA Microplate Reader (BMG Lab technology, Champagny-sur-Marne, France). The luminescent signal was read immediately after ECL injection.

A further test has as its system RPE-1 cells. The test can be described thus: Cell viability, PrestoBlue assay, RPE-1. The test is classed as cell-based. Conditions: Homo sapiens, 48 h, mean ± SEM, read-out: GI50 (concentration causing 50% cell growth inhibition). The method, then:
as §3

Test [2] has as its system microtubular network of interphase cells. On the set-up: method as in PMID 32781579. Particulars: cited from earlier work.
The next test relates to tubulin. On the set-up: method as in PMID 32781579. Particulars: cited from earlier work.
The next test addresses porcine tubulin (Sus scrofa, UniProt P02550+P02554). Nature of the test: biochemical. The method, then:
Tubulin polymerization kit ((#BK004) was purchased from Cytoskeleton, Inc. (Denver, CO, USA). To study the effect of the compounds on MT assembly, the absorbance-based in vitro tubulin polymerization assay was performed following the manufacturer’s protocol. The reaction mixture containing porcine tubulin (40 µM) in G-PEM buffer (80 mM PIPES pH 6.9, 2.0 mM MgCl2, 0.5 mM EGTA, and 5% glycerol) supplemented with 1.0 mM GTP, in the presence of DMSO (0.18%) or the compound to be tested, was prepared and added to each well of a 96-well plate (half area, #675096, Greiner Bio One, Courtaboeuf, France). Tubulin polymerization was monitored by the increase in absorbance over time, measured by a CLARIOstar^plus Microplate reader from BMG Lab technology (Champagny-sur-Marne, France).

Sequence of porcine tubulin (P02554 whole entry): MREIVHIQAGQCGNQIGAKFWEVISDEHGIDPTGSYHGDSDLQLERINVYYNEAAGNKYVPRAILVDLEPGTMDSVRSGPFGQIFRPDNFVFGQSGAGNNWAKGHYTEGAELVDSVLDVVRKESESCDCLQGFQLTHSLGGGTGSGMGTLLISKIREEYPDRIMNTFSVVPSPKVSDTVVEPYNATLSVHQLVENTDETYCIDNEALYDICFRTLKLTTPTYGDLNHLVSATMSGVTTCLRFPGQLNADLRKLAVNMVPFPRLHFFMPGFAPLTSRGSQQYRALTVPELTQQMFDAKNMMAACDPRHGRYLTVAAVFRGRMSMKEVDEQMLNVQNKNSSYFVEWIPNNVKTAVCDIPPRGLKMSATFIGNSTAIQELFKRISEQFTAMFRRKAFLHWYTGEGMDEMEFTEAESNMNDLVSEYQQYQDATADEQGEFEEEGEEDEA
Sequence of porcine tubulin (P02550 whole entry): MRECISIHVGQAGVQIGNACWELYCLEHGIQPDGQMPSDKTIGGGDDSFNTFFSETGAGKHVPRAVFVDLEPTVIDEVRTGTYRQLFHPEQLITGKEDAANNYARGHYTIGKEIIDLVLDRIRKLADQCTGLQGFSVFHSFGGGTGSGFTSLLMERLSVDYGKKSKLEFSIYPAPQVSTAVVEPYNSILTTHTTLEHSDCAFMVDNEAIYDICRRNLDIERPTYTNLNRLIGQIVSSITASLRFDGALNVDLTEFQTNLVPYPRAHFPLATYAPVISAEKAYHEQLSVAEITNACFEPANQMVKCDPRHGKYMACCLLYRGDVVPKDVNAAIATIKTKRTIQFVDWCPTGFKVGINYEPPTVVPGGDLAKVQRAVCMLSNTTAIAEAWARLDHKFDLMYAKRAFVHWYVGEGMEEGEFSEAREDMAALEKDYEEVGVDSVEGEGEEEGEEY

As to `COc1ccc(/C=C\c2cc(OC)c(OC)c(OC)c2)cc1O` [C-A4, combretastatin-A4], the “effect on cell microtubules by immunofluorescence” value in the test with RPE1 cell microtubules is “depolymerized cell microtubules”. Also, the GI50 came to 0.93 ± 0.07 nM in the test on HeLa cells and 4.16 ± 1.42 nM in the test with RPE-1 cells. The “state of the MT network by immunofluorescence” value (from here on “state of the MT network”) in the test on HeLa cells microtubules is “only few MTs remain”. In addition, the IC50 in test [1] stood at 4.5 ± 0.76 nM.
For the compound `Cc1cc(-n2cccc2)c(C)c2c1[nH]c1ccc(Cl)cc12` [Carba1], the “effect on the microtubular network of interphase cells” value in test [2] is “no detectable effect”. The “effect on tubulin assembly kinetics” value in the test with tubulin was “visible depolymerizing effect”.
Take `COc1cc2c(c(OC)c1OC)-c1ccc(OC)c(=O)cc1[C@@H](NC(C)=O)CC2` [colchicine]: the “state of the MT network” value in the test with HeLa cells microtubules was “a MT network is still present”.
On to `COC(=O)Nc1nc2ccc(C(=O)c3cccs3)cc2[nH]1` [nocodazole], for which the GI50 with HeLa cells was determined as 49.3 ± 2.6 nM; in the test on RPE-1 cells it was 81.7 ± 4.41 nM. In the test with HeLa cells microtubules, the “state of the MT network” value is “a MT network is still present”. In addition, the IC50 was 350 ± 76.4 nM in test [1] and about 5000 nM on porcine tubulin. Moreover, the “concentration giving almost complete depolymerization / inhibition of tubulin assembly” value on porcine tubulin (tubulin 40 µM) is at least 40 µM.
On to `CC[C@]1(O)C[C@@H]2CN(CCc3c([nH]c4ccccc34)[C@@](C(=O)OC)(c3cc4c(cc3OC)N(C)[C@H]3[C@@](O)(C(=O)OC)[C@H](OC(C)=O)[C@]5(CC)C=CCN6CC[C@]43[C@@H]65)C2)C1` [vinblastine], for which the “effect on cell microtubules by immunofluorescence” value in the test with RPE1 cell microtubules was “depolymerized cell microtubules”. For the same compound, the GI50 in the test on HeLa cells is 0.73 ± 0.02 nM; with RPE-1 cells, 0.7 ± 0.77 nM. In the test on HeLa cells microtubules, the “state of the MT network” value was “only few MTs remain”. In addition, the figures for the IC50 (in test [1]; against porcine tubulin) were 4.83 ± 0.17 nM and about 1000 nM, respectively.

These data come from publication PMC8533752, “Characterization of Microtubule Destabilizing Drugs: A Quantitative Cell-Based Assay That Bridges the Gap between Tubulin Based- and Cytotoxicity Assays” (Cancers, 2021).
